According to paper PMC6100724, “Proteome‐wide analysis of phospho‐regulated PDZ domain interactions” (Molecular Systems Biology, 2018):

Key:
[1] = target: T1, Scribble PDZ1 (Homo sapiens, UniProt Q14160); assay: Pre-phosphorylation ProP-PD: wild-type library treated with RPS6KA1 or not, selection with NGS; assay type: binding; conditions: for Phosphorylated selection Mean fraction: Pre-phosphorylation with RPS6KA1; for Phosphorylated selection Mean fraction / Unphosphorylated selection Mean fraction: mean of the two selections, bait Scribble PDZ1; for Unphosphorylated selection Mean fraction: Without Kinase
T1 construct: human Scribble PDZ1 aa 719–829 in; made in house; host or cells: E. coli BL21 Gold (DE3)
T1 sequence (Q14160 719-829): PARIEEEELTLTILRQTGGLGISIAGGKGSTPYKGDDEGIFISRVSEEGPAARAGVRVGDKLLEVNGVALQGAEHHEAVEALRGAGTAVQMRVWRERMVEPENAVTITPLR
Protocol: For pre‐phosphorylation of the wild‐type ProP‐PD library, we obtained activated RPS6KA1 (Thermo Fisher). The time and amount of kinase required to phosphorylate the ProP‐PD library were tested in a phosphorylation assay.
(§1) Phage selections were carried out for four rounds following a protocol by Huang and Sidhu (Huang & Sidhu, 2011) with minor modifications. Non‐specific binding phage was removed by pre‐selections against immobilized GST throughout the selection. The selections against the (pre‐)phosphorylated wild‐type library were performed in 50 mM HEPES (pH 7.4) and 150 mM NaCl (HBS) following the same procedure after pre‐phosphorylation of the library.
(§2) • Immobilize proteins (15 μg in 100 μl PBS) in a 96‐well MaxiSorp microtiter plate (NUNC) overnight at 4°C. • Start a 2YT culture of E. coli Omnimax supplemented with 100 μg/ml tetracycline to retain the F pilus epitope. • Block the wells with 200 μl 0.5% BSA in PBS for 2 h at 4°C. • Precipitate naïve phage library (10^11 cfu per selection) or amplified phage pool from the previous round of selection by adding one‐fifth the volume of PEG/NaCl. • Incubate on ice for 10 min, and pellet precipitated phage by centrifugation at 5,300 g for 15 min. Resuspend the phage pellet in 100 μl PBS per selection. • Add 100 μl of phage solution to the GST‐coated pre‐selection wells and incubate for 1 h. • Transfer the phage solution to the immobilized target proteins and allow it to bind for 2 h at 8°C. • Wash the plate four times with 200 μl cold wash buffer (PBS, 0.05% Tween‐20). • Elute bound phage by incubation with 100 μl log phase (0.6–0.8 OD600) E. coli Omnimax for 30 min at 37°C with shaking (200 RPM). • Add 10^12 cfu/ml M13K07 helper phage for hyperinfection of the bacteria and incubate as above for 45 min. • Transfer the bacterial culture to 10 ml 2YT supplemented with 50 μg/ml carbenicillin, 25 μg/ml kanamycin, and 300 μM IPTG and incubate overnight at 37°C while shaking. • Perform phage pool ELISA to monitor the progress of the selection as described previously (Huang & Sidhu, 2011).
• Precipitate the naive wild‐type phage library (as described above, 1.8 × 10^10 cfu phage per selection). • Resuspend the precipitated phage pellets in 100 μl Kinase buffer per selection and add ATP (100 μM final concentration) and RPS6KA1 (500 ng/ml) to the phage solution. In parallel, prepare a negative control where only ATP is added to the phage pool. • Incubate the phosphorylation reaction for 2 h at room temperature. Stop the reaction through PEG/NaCl precipitation (as described above). • Resuspend the phage pool in 100 μl HBS.
During the 4 days of pre‐phosphorylation ProP‐PD selections, the input phage library of each day of selection was subjected to phosphorylation prior to phage selection.
(§3) The naïve library and the enriched phage pools of the third day of selection were amplified and barcoded by PCR and analyzed by NGS as described elsewhere (McLaughlin & Sidhu, 2013; Ivarsson et al, 2014). The reads were demultiplexed using the barcode sequences and filtered by discarding sequences with a Phred quality score under 30. Sequences were mapped to the original library using Bowtie (Langmead et al, 2009) with two mismatches between reads and library sequence. Nucleotide mutations leading to amino acid substitutions were subsequently removed. Cutoff values of NGS counts were assigned for each pool. PWMs were generated based on the remaining peptides (aligned on the C‐termini) using WebLogo (Crooks et al, 2004).

[2] = system: DLG1 PDZ3; assay: Phosphomimetic ProP-PD selection with NGS; assay type: binding, human; conditions: mean of selections 1-3; bait DLG1 PDZ3
Protocol: as §1, §2, §3
(§4) However, there was no significant correlation of the actual read counts (selection “strength”) and the initial representation in the library, reflecting the strong selection during phage display (wt+mimetic: P‐value: 0.49, ρ = −0.08, mimetic only: P‐value: 0.069, ρ = −0.2, wt only: P‐value: 0.12, ρ = 0.17). Consequently, the amount of reads for each binder after phage display is not a function of the amount of input reads in the naïve library and no modeling based on the input library frequencies to score the interactions is necessary. To allow for comparison between replicate selections, we used the fraction of NGS reads within a certain set, instead of the absolute number of NGS reads, as the absolute numbers differ between different NGS batches.

[3] = system: DLG1 PDZ1; assay: Phosphomimetic ProP-PD selection with NGS; assay type: binding, human; conditions: mean of selections 1-3, bait DLG1 PDZ1; for Mean fraction #NGS counts mimetic peptide / total count selection: phosphomimetic peptide; for Mean fraction #NGS counts wt peptide / total counts selection: wild type peptide
Protocol: as §1, §2, §3, §4

[4] = system: Scribble PDZ2; assay: Phosphomimetic ProP-PD selection with NGS; assay type: binding, human; conditions: bait Scribble PDZ2
Protocol: as §1, §2, §3, §4

[5] = system: Scribble PDZ3; assay: Phosphomimetic ProP-PD selection with NGS; assay type: binding, human; conditions: bait Scribble PDZ3
Protocol: as §1, §2, §3, §4

[6] = target: T1, Scribble PDZ1; assay: Phosphomimetic ProP-PD selection with NGS; assay type: binding; conditions: bait Scribble PDZ1; mean of selections 1-3
Protocol: as §1, §2, §3, §4

[7] = target: T2, DLG1 PDZ2 (Homo sapiens, UniProt Q12959); assay: Phosphomimetic ProP-PD selection with NGS; assay type: binding; conditions: mean of selections 1-3, bait DLG1 PDZ2
T2 construct: human DLG1 PDZ2 aa 311–407 in a modified pRSET vector 40; made in house; host or cells: E. coli BL21 Gold (DE3)
T2 sequence (Q12959 311-407): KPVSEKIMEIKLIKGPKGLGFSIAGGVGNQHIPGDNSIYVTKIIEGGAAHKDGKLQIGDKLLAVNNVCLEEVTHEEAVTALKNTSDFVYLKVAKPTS
Protocol: as §1, §2, §3, §4

[8] = mean of selections 1 and 2 (selection 3 empty)

DKESFLTWL [YAP1]
Phosphorylated selection Mean fraction [1]: 0.0002294
Unphosphorylated selection Mean fraction [1]: 0.0001256

KGRAKGEPV
Mean fraction #NGS counts mimetic peptide / total count selection [2]: 0

KGRAKGTPV
Mean fraction #NGS counts wt peptide / total counts selection [2]: 0.0008774

KREFIESNV
Mean fraction #NGS counts mimetic peptide / total count selection [3]: 2.37e-6
Mean fraction #NGS counts mimetic peptide / total count selection [4, 8]: 0.003418
Mean fraction #NGS counts mimetic peptide / total count selection ([5]; mean over selections 1-3): 0.005112
Mean fraction #NGS counts mimetic peptide / total count selection [6]: 0.0009157
Mean fraction #NGS counts mimetic peptide / total count selection ([7]; phosphomimetic peptide): 0.0001273

KRSFIESNV
Mean fraction #NGS counts wt peptide / total counts selection [3]: 0.0007809
Mean fraction #NGS counts wt peptide / total counts selection [4, 8]: 0.2119
Mean fraction #NGS counts wt peptide / total counts selection ([5]; mean over selections 1-3): 0.07707
Mean fraction #NGS counts wt peptide / total counts selection [6]: 0.03115
Mean fraction #NGS counts wt peptide / total counts selection ([7]; wild type peptide): 0.007809

KSEPFLTWL [WWTR1]
Phosphorylated selection Mean fraction [1]: 1.399e-5
Unphosphorylated selection Mean fraction [1]: 1.381e-5

LPHSPHSHL [AAAS]
Phosphorylated selection Mean fraction [1]: 6.993e-6
Unphosphorylated selection Mean fraction [1]: 4.139e-6

LPKIKETTV [FRMPD4]
Phosphorylated selection Mean fraction [1]: 0.001062
Unphosphorylated selection Mean fraction [1]: 0.0007483

PIHSLETSL [ATP2B2]
Phosphorylated selection Mean fraction [1]: 0.0009701
Unphosphorylated selection Mean fraction [1]: 0.003212

PLHSLETSL [ATP2B1]
Phosphorylated selection Mean fraction [1]: 0.0003108
Unphosphorylated selection Mean fraction [1]: 1.381e-5

RATEPGSGL
Mean fraction #NGS counts mimetic peptide / total count selection [2]: 0

RATSPGSGL
Mean fraction #NGS counts wt peptide / total counts selection [2]: 0.001731

RSRSIETDV
Mean fraction #NGS counts mimetic peptide / total count selection [3]: 0.001793
Mean fraction #NGS counts mimetic peptide / total count selection [4, 8]: 0.06648
Mean fraction #NGS counts mimetic peptide / total count selection ([5]; mean over selections 1-3): 0.001306
Mean fraction #NGS counts mimetic peptide / total count selection [6]: 0.0006725
Mean fraction #NGS counts mimetic peptide / total count selection [7]: 0.009109

RSRSISTDV [FAM163B]
Phosphorylated selection Mean fraction [1]: 0
Unphosphorylated selection Mean fraction [1]: 2.348e-5

SARLWETSI [ADAM22]
Phosphorylated selection Mean fraction [1]: 0.05157
Unphosphorylated selection Mean fraction [1]: 0.03077

SIDLWETAL [SLC15A5]
Phosphorylated selection Mean fraction [1]: 0.0004582
Unphosphorylated selection Mean fraction [1]: 1.656e-5

SRDRKETSI [RALBP1]
Phosphorylated selection Mean fraction [1]: 0
Unphosphorylated selection Mean fraction [1]: 1.381e-5

TALKVMTMV [DACT2]
Phosphorylated selection Mean fraction [1]: 2.797e-5
Unphosphorylated selection Mean fraction [1]: 9.668e-6

TKGISITSI [GNRHR2]
Phosphorylated selection Mean fraction [1]: 3.213e-5
Unphosphorylated selection Mean fraction [1]: 3.175e-5

TMFLRETEL
Mean fraction #NGS counts mimetic peptide / total count selection [3]: 0.002709
Mean fraction #NGS counts mimetic peptide / total count selection ([4]; mean over selections): 0.1922
Mean fraction #NGS counts mimetic peptide / total count selection ([5]; mean over selections 1-3): 0.4954
Mean fraction #NGS counts mimetic peptide / total count selection [6]: 0.8115
Mean fraction #NGS counts mimetic peptide / total count selection [7]: 0.0007019

TMFLRETSL
Mean fraction #NGS counts wt peptide / total counts selection [3]: 0.0004495
Mean fraction #NGS counts wt peptide / total counts selection ([4]; mean over selections): 0.008166
Mean fraction #NGS counts wt peptide / total counts selection ([5]; mean over selections 1-3): 0.0186
Mean fraction #NGS counts wt peptide / total counts selection [6]: 0.01417
Mean fraction #NGS counts wt peptide / total counts selection [7]: 0.0002151

TMFLRETSL [GUCY1A2]
Phosphorylated selection Mean fraction [1]: 0.5527
Unphosphorylated selection Mean fraction [1]: 0.1808

TMFLRETSL‐coo‐
proportion of NGS counts, pre‐phosphorylated library relative to unphosphorylated library (fold) ([1]; phage-displayed peptide, library treated with RPS6KA1, selection against Scribble PDZ1, n = 2): 3 ×

TNSSSYEHI
Mean fraction #NGS counts mimetic peptide / total count selection [2]: 0

TNSSSYSHI
Mean fraction #NGS counts wt peptide / total counts selection [2]: 0.001855

VVHTPETEV
Mean fraction #NGS counts mimetic peptide / total count selection [3]: 0.0004495
Mean fraction #NGS counts mimetic peptide / total count selection ([4]; mean over selections): 0.0009495
Mean fraction #NGS counts mimetic peptide / total count selection ([5]; mean of selections 1-3, phosphomimetic peptide): 1.817e-5
Mean fraction #NGS counts mimetic peptide / total count selection [7]: 5.021e-5

VWLRKETRV [CYSLTR2]
Phosphorylated selection Mean fraction [1]: 7.3245e-6
Unphosphorylated selection Mean fraction [1]: 0

YEPSMEMSV
Mean fraction #NGS counts mimetic peptide / total count selection [2]: 0.001067

YPGSPDSWV
Mean fraction #NGS counts wt peptide / total counts selection [3]: 3.476e-5
Mean fraction #NGS counts wt peptide / total counts selection [4, 8]: 0.2284
Mean fraction #NGS counts wt peptide / total counts selection [7]: 0.0005284
